Results on 3 compounds are retold here after patent US12083131B2 (priority 2014, dated 2024).

For series [1] the following is noted: in vivo; cited from earlier work.
For series [2], the system named is TBI. Description: Treatment of subjects with TBI at the starting dose. The settings on record: starting dose (29 μg/kg/hr), 11 subjects with TBI.
Series [3] has as its system SRSE. Description: Continuous infusion allopregnanolone under emergency-use INDs for SRSE.
Series [4] can be described thus: Other clinical studies and experience to date with intravenous allopregnanolone. The settings on record: all AEs reported to date.
Series [5] concerns severe postpartum depression (PPD). Description: Clinical study of allopregnanolone injection in adult female patients with severe postpartum depression.
The subject of series [6] is essential tremor. Briefly: Clinical trial of allopregnanolone injection in essential tremor (Stage One placebo-controlled crossover, low-dose; Stage Two open-label, high-dose).

In the case of `Cc1ncc2n1-c1ccc(Cl)cc1C(c1ccccc1F)=NC2` [midazolam], the “Exposure of breast-feeding infant” value in series [1] is given as “less than 0.1 % of the maternal dose”.
For `CC(=O)[C@H]1CC[C@H]2[C@@H]3CC[C@H]4C[C@H](O)CC[C@]4(C)[C@H]3CC[C@]12C` [allopregnanolone, 3 alpha-hydroxy-5 alpha-pregnan-20-one], in series [2], the “SAEs at the starting dose” value is “no SAEs reported”. The “Drug-related SAEs at the target/maximum level of exposure” value in series [3] (150 nM exposure, 6 subjects with SRSE, continuous infusion) is “no drug-related SAEs reported”. Moreover, in series [3] (150 mcg/kg/hour, six subjects with SRSE), the “Drug-related serious adverse events at maintenance dose” value is “without any drug-related serious adverse events”. Moreover, in series [4], the “AEs reported to date” value was “mild and non-serious”. In series [5] (after treatment), the “Response (relief from symptoms) after treatment” value is reported as “sustained”. Moreover, in series [5] (all four patients), the “Clinical Global Impression-Improvement (CGI-I) scale” value is “consistent improvement” and the “Remission as measured by HAM-D during the treatment period” value is listed as “rapidly achieved remission”. Also, the Tolerability entry in series [5] (all patients, on therapy or during the 30-day follow-up period) is “well-tolerated”. Moreover, the “Time to improvement of symptoms after treatment” value in series [5] (four patients (e.g., within 24 hours, within 12 hours after treatment)) is given as “one”. For the same compound, in series [5] (four patients, baseline, >24.0 is severe), the “Mean HAM-D score at baseline” value turned out to be 26.5. The “Mean HAM-D score by the end of the treatment period” value in series [5] (four patients, end of treatment period, below 7.0 is symptom-free) was 1.8. Also, the “Time to improvement in depression after administration” value in series [5] (four women with severe PPD) is not above 24 h. In series [5] (women with severe PPD, intravenous administration), the “Improvement in depression, number of women” value is “four of four”. Further, the “Tolerability of the maintenance dose” value in series [6] (86 mcg/kg/hour, Stage One) is reported as “good tolerability”. Also, in series [6] (Stage One, arms not distinguished, one case each of phlebitis, somnolence, abnormal dreams, back pain, nasal congestion, headache, fatigue, nausea, two cases of dizziness), the Adverse events reported was 10. Moreover, the “Sedation scores versus placebo” value in series [6] (conclusion of Stage One) is given as “no clear difference”. The “Measures of activity in essential tremor (accelerometer and TETRAS scores) versus placebo” value in series [6] (conclusion of Stage One, maintenance dose 86 mcg/kg/hour) is reported as “no clear difference”.
Turning to `CC(C)c1cccc(C(C)C)c1O` [propofol], the “Exposure of breast-feeding infant” value in series [1] was “less than 0.1 % of the maternal dose”.
